Measured values taken from PMC3034713, “Targeting Vascular NADPH Oxidase 1 Blocks Tumor Angiogenesis through a PPARα Mediated Mechanism” (PLoS ONE, 2011).

What was measured:
[1] = test system: MLEC; experiment: Endothelial cell sprouting assay (tube-like structure formation, 3D culture); type: cell-based, mouse; conditions: NOX1-deficient MLEC, 10 µM, compared to untreated NOX1-deficient cells
Method: Sprouting assay was performed as described previously. Briefly, endothelial cells were plated in 96 well plates at 8,000 cells per well in a 3D fibrin gel. Above the gel, 10% FCS containing DMEM was complemented with 200 KIU/ml of Aprotinin (Sigma). Length of branches was evaluated using the Metamorph program. Results are expressed in mm of skeleton length/number of cells.

[2] = test system: MLEC; experiment: Wound healing assay (endothelial cell migration); type: cell-based, mouse; conditions: NOX1-deficient MLEC, 10 µM, compared to untreated NOX1-deficient cells
Method: Wound healing assay was performed as described previously. Briefly, endothelial cells were plated in Matrigel (Becton Dickinson) precoated 96 wells plates. One day after plating the cell monolayer was scratched to make a regular wound. Cells were allowed to migrate overnight. Migration area was then measured and calculated using the Metamorph program (MDS Analytical Technologies).

[3] = test system: NOX1-silenced endothelial cell lines; experiment: p65 NF-κB nuclear translocation after VEGF or bFGF stimulation (Western blot, immunofluorescence); type: cell-based, mouse; conditions: 10 µM before stimulation with VEGF and bFGF
Method: After stimulation, nuclear and cytoplasmic proteins of endothelial cells were extracted according to Tauzin et al.. Briefly, cells were incubated in TKM buffer (50 mM Tris-HCl pH 7.4, 25 mM KCl, 5 mM MgCl2 and 1 mM EGTA) containing 1% Triton and protease inhibitor cocktail CLAP [10 µg/ml chymostatin, leupeptin, antipain and pepstatin A (Sigma) for 30 minutes on ice, sonicated for 2 minutes and centrifuged at 5000 g for 30 minutes. The pellet and the supernatant were separated and solubilized in sample buffer.
Cells were stimulated for the indicated time and then lysed in TNT buffer (50 mM Tris, 150 mM NaCl, 0.5% Triton X-100) complemented with protease inhibitor cocktail CLAP and phosphatase inhibitor cocktail [25 mM NaF, 20 mM b-Glycerophosphate, 5 mM HEPES, 2.5 mM EDTA, 0.5 mM Orthovanadate]. Membranes were blocked in PBS containing 0.5% BSA and hybridized with different antibodies.

[4] = test system: tEnd siRNA NOX1; experiment: Quantitative real-time PCR of target genes in NOX1-silenced endothelial cell line; type: cell-based, mouse
Method: Total RNA from treated cells was extracted using RNeasy minikit (Qiagen). Total RNA was reverse-transcribed with the Superscript III first strand RT-PCR kit (Invitrogen). Quantitative real-time PCR was performed using SybrGreen master mix (Applied Biosystems) on Step one plus Real-time PCR machine (Applied Biosystems). Primer sequences are listed in the Materials and Methods S1.
For mouse cells, siRNAs were nucleofected using the Amaxa technology (Lonza). Gene silencing was assessed 48 hours after nucleofection by quantitative RT-PCR. For HUVEC, shRNA vectors (SABiosciences) were nucleofected using Amaxa. Gene silencing was assessed 48 hours after nucleofection by quantitative RT-PCR.

[5] = target: T1, NOX1 (Homo sapiens, UniProt Q9Y5S8); experiment: NOX inhibition in cell free assay, membranes from cells overexpressing NOX1 (Amplex Red ROS); type: biochemical; conditions: cell-free, membranes from NOX1 over-expressing cells
T1 construct: expressed in transfected cells
T1 sequence (Q9Y5S8 1-564): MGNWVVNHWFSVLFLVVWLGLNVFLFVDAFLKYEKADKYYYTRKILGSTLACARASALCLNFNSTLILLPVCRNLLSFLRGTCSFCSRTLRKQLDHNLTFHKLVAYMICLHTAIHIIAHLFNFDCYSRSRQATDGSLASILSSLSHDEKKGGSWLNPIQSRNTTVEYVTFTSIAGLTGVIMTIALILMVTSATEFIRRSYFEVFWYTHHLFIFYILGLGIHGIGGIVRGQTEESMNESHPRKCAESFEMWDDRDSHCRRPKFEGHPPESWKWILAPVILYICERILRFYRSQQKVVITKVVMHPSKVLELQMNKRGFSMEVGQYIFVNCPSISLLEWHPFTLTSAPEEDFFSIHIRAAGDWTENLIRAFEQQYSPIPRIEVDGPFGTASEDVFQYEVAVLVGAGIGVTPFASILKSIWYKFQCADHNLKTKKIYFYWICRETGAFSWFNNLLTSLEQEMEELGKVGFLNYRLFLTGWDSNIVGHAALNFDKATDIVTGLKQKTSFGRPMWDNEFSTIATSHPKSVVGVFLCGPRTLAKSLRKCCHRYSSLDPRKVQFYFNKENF
T1 sequence (P13498 2-195 partner limits assumed): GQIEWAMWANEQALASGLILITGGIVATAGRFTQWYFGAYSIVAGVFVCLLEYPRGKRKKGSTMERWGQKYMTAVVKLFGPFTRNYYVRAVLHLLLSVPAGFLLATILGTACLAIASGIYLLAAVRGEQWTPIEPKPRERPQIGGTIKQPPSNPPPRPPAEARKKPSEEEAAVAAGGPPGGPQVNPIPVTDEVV
Method: (§1) Membranes from NOX2 expressing PMN cells or from cells overexpressing NOX1 or NOX4 were prepared as previously described. After resuspension in sonication buffer (11% sucrose, 120 mM NaCl, 1 mM EGTA in PBS, pH 7.4 for NOX4-expressing cells) or in relax buffer (10 mM Pipes, 3 mM NaCl, 3.5 mM MgCl2, 0.1 M KCl, pH 7.4), cells were broken by sonication and centrifuged (200 g, 10 min). The supernatant was loaded onto a 17/40% (w/v) discontinuous sucrose gradient and centrifuged (150,000 g for 30 min). Membrane fractions were collected and stored at −80°C. ROS production measurements of membranes expressing different NOX subunits was determined as previously described using the Amplex Red method (Invitrogen).

[6] = target: T2, NOX4 (Homo sapiens, UniProt Q9NPH5); experiment: NOX inhibition in cell free assay, membranes from cells overexpressing NOX4 (Amplex Red ROS); type: biochemical; conditions: cell-free, membranes from NOX4 over-expressing cells
T2 construct: expressed in transfected cells
Method: as §1

[7] = target: xanthine oxidase (Homo sapiens, UniProt P47989); experiment: Xanthine oxidase inhibition, concentration-response; type: biochemical
[8] = target: T3, NOX2 (Homo sapiens, UniProt P04839); experiment: NOX inhibition in cell free assay, membranes from NOX2 expressing PMN cells (Amplex Red ROS); type: biochemical; conditions: cell-free, membranes from NOX2 expressing PMN cells
T3 construct: Membranes from NOX2 expressing PMN cells; endogenous in cells; host or cells: PMN cells
T3 sequence (P04839 2-570 limits assumed): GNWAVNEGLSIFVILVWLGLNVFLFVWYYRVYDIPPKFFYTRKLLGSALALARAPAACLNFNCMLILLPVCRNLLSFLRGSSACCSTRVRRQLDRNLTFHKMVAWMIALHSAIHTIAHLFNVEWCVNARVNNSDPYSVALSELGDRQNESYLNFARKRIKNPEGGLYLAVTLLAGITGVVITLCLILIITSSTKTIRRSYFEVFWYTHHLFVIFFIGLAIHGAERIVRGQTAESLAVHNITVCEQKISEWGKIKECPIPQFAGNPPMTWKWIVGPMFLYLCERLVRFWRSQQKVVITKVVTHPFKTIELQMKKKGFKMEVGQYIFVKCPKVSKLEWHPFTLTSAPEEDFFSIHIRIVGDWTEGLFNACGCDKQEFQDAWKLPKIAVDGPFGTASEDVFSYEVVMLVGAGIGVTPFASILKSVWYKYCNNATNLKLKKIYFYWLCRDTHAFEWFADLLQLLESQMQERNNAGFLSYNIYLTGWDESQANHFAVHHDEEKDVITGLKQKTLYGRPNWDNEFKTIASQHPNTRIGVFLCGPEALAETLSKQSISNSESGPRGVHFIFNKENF
T3 sequence (P13498 2-195 partner limits assumed): T1 sequence (P13498 2-195 partner limits assumed)
Method: as §1

[9] = tEnd siRNA NOX1 + GW 6471, compared to control cells

xanthine oxidase, sequence (P47989 whole entry, species assumed): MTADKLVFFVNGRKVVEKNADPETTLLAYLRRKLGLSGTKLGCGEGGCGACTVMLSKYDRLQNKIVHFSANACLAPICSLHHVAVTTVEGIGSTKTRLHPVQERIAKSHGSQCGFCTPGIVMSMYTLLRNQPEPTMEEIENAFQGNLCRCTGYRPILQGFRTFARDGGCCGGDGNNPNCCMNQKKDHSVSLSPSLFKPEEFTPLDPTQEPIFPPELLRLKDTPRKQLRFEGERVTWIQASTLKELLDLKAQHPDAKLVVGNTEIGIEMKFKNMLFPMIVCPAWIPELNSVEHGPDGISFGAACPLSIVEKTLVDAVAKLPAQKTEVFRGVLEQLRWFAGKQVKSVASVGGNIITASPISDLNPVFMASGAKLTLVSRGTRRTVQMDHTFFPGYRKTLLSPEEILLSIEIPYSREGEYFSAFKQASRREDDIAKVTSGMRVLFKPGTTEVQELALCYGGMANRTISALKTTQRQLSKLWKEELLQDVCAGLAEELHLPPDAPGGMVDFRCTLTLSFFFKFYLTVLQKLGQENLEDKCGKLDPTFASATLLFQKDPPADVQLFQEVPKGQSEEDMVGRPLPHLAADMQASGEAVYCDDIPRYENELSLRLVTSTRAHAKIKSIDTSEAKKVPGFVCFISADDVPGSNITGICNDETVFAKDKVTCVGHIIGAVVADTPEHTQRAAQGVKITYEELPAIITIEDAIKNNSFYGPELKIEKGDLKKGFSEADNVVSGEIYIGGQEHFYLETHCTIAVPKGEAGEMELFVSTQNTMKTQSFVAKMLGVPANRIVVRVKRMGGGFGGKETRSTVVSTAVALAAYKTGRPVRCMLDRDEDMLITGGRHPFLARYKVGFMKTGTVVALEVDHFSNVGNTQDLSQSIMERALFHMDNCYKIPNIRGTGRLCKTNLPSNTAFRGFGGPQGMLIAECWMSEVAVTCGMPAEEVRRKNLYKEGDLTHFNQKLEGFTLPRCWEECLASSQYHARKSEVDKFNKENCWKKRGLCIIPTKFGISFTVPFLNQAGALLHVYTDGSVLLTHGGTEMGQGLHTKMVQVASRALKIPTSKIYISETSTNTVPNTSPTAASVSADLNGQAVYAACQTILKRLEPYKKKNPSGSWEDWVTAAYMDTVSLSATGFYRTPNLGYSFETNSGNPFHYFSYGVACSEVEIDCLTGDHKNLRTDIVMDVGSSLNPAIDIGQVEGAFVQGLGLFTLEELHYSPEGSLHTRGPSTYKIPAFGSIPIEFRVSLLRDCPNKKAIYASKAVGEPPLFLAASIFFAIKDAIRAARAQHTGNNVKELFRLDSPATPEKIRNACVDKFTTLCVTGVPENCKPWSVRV
T2 sequence (Q9NPH5 whole entry, species assumed, one chain of several): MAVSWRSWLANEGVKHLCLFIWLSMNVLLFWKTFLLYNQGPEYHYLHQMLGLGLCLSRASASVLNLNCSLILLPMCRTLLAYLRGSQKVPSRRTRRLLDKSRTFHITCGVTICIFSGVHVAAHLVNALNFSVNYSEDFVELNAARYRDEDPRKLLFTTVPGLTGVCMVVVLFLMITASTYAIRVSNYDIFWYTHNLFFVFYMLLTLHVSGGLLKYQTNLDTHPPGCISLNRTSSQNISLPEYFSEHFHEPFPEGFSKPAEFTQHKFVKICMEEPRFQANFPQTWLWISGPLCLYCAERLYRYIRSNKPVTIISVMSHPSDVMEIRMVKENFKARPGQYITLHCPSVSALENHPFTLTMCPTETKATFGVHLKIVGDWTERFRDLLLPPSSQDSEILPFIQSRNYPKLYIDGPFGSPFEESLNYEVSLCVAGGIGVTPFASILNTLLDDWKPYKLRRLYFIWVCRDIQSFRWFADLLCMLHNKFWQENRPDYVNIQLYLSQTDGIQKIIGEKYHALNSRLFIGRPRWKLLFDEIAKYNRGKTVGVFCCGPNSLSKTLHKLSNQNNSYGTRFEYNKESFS

| Compound | tube formation of NOX1-deficient MLEC [1] | cell migration of NOX1-deficient MLEC [2] | deficient nuclear translocation of NF-kB in NOX1-silenced cells [3] | PPARα up regulation in NOX1-silenced cells ([4]; NOX1-silenced cells incubated with antagonist, data not shown) | Catalase expression, fold increase or decrease [4, 9] [fold] | GPX3 expression, fold increase or decrease [4, 9] [fold] | MMP-2 expression, fold increase or decrease [4, 9] [fold] | MMP-9 expression, fold increase or decrease [4, 9] [fold] | VCAM-1 expression, fold increase or decrease [4, 9] [fold] | VE-cadherin expression, fold increase or decrease [4, 9] [fold] | VEGF expression, fold increase or decrease [4, 9] [fold] | bFGF expression, fold increase or decrease [4, 9] [fold] | uPAR expression, fold increase or decrease [4, 9] [fold] | Ki [5] [µM] | Ki [6] [µM] | Ki [7] [µM] | Ki [8] [µM] |
| --- | --- | --- | --- | --- | --- | --- | --- | --- | --- | --- | --- | --- | --- | --- | --- | --- | --- |
| CCC(=O)NC[C@H](Cc1ccc(OCCc2nc(-c3ccccc3)oc2C)cc1)N/C(C)=C\C(=O)c1ccc(C(F)(F)F)cc1 [GW6471] | restored | restored | no longer observed | no longer observed | 0.92±0.012 | 0.70±0.01 | 2.13±0.24 | 0.47±0.07 | 0.57±0.18 | 0.9±0.2 | 0.68±0.04 | 0.64±0.25 | 1.34±0.6 | – | – | – | – |
| c1ccc([I+]c2ccccc2)cc1 [DPI, Diphenyliodonium, reference compound] | – | – | – | – | – | – | – | – | – | – | – | – | – | 0.07 ± 0.01 | 0.07 | 0.05 | 0.07 |
